{
  "source": "patent US20190269705A1",
  "about": "“METHODS AND MATERIALS FOR TREATING GRAFT VERSUS HOST DISEASE” (Regents of the University of Minnesota, priority 2017, published 2019)",
  "key": {"[1]": {"tested_on": "CD4 T cells (Th0 conditions)", "experiment": "CD4 T cells activated and cultured in IL2 (Th0 conditions), flow cytometry"}, "[2]": {"tested_on": "Treg cells", "experiment": "CD4 T cells in Treg skewing conditions, flow cytometry", "details": "5 days, CB839 vs vehicle"}, "[3]": {"tested_on": "Th17 cells", "experiment": "Intracellular metabolites by mass spectrometry and pathway analysis, Th17", "assay_type": "cell-based, mouse", "details": "for Hits: Th17 Pathway", "procedure": "Glucose uptake assays were performed as described elsewhere (see, e.g., Macintyre et al., 2014 Cell Metab. 20(1):61-72). Naïve CD4+ T cells were differentiated into Th1 and Th17 cells, in triplicate, in the presence or absence of CB839 over 5 days and spun down after reisolation using CD4 kit as previously described. Cells were washed 2× in PBS, counted, then rested in 1 mL Kreb's Ringers HEPES (KRH) for 10 minutes. Cells were spun and resuspended to 5×10^5 cells/50 uL KRH for glucose uptake assay. Briefly, cells were […]. Cells incubated for 10 minutes at 37° C. Immediately after incubation, reaction was quenched with 200 μM phloretin (Calbiochem, Cat #: 524488). Cells were spun, washed, and then resuspended in scint fluid for counting on Beckman-Coulter scintillation counter. Pathway analysis of altered metabolites was performed using Metaboanalyst 3.0 (metaboanalyst. ca/faces/home.xhtml).\n(§1) Differentiation: CD4 cells were isolated as previously described and differentiated in subset-specific medium (in triplicate) for 3 days, split at day 3 with new media and IL-2, then allowed to incubate a further 2 days. At day 5, wells were combined, cells washed lx in MACS buffer, re-isolated for CD4 via AutoMACS Pro automated magnetic separator (Miltenyi, Cat #: 130-092-545). Metabolites from Th1 and Th17 cells were extracted as described above.\n(§2) Differentiation. CD4 cells were isolated as previously described and differentiated in subset-specific medium in the presence of vehicle or CB839 (in triplicate) for 3 days, split at day 3 with new media and IL-2, then allowed to incubate a further 2 days. At day 5, wells were combined, cells washed 1× in MACS buffer and re-isolated for CD4 via AutoMACS Pro automated magnetic separator (Miltenyi, Cat #: 130-092-545). Metabolites from Th1 and Th17 cells were extracted and analyzed by LC-HRMS using a Q-Exactive as described previously (Gerriets et al., 2015). Data were range scaled and analyzed using Metaboanalyst 3.5 (Xia and Wishart, 2002) to generate heat maps and for principle component analyses."}, "[4]": {"tested_on": "Th17 cells", "experiment": "CD4 T cells in Th17 skewing conditions, flow cytometry"}, "[5]": {"tested_on": "Th17 cells", "experiment": "Nutrient uptake and secretion by NMR", "assay_type": "cell-based, mouse"}, "[6]": {"tested_on": "Th1 cells", "experiment": "Intracellular metabolites by mass spectrometry and pathway analysis, Th1", "assay_type": "cell-based, mouse", "details": "for Hits: Th1 Pathway", "procedure": "as §1, §2"}, "[7]": {"details": "activated CD4 T cells, IL2, day 5"}, "[8]": {"details": "Alanine, aspartate and glutamate metabolism"}},
  "note": "Entries after “also recorded” stand apart in the source; their conditions may differ.",
  "data": [
    {"compound": "O=C(Cc1cccc(OC(F)(F)F)c1)Nc1ccc(CCCCc2nnc(NC(=O)Cc3ccccn3)s2)nn1", "note": "[CB839]", "values": [
      {"measurement": "Foxp3 expression", "setting": "[1]; CD4+ T cells stimulated in the presence of IL-2 and CB839", "value": "unchanged"},
      {"measurement": "phospho-S6", "setting": "[1]; Th0 cells in the presence of IL2", "value": "enhanced phospho-S6"},
      {"measurement": "IFNγ expression", "setting": "[1]; [7]", "value": "greater expression of IFNγ"},
      {"measurement": "Tbet expression", "setting": "[1]; [7]", "value": "greater expression"},
      {"measurement": "Treg differentiation", "setting": "[2]", "value": "unchanged"},
      {"measurement": "2-hydroxyglutarate (2-HG)", "setting": "[3]; Th17, CB839-treated vs vehicle", "value": "increased in both Th1 and Th17"},
      {"measurement": "intracellular α-KG", "setting": "[3]; Th17, CB839-treated vs vehicle", "value": "reduced in CB839-treated Th1, but not Th17 cells"},
      {"measurement": "programs of intracellular metabolites", "setting": "[3]; Th17, differentiated with CB839, 5 days", "value": "more pronounced in Th17 than in Th1 cells; also recorded: shifted"},
      {"measurement": "glutamate and aspartate levels", "setting": "[3]; Th17, over five days", "value": "rapidly decreased"},
      {"measurement": "steady state levels of glutamine", "setting": "[3]; Th17, over five days", "value": "rapidly increased"},
      {"measurement": "Hits", "setting": "[3]; [8]", "value": 5},
      {"measurement": "Hits", "setting": "[3]; Pentose phosphate pathway", "value": 5},
      {"measurement": "Hits", "setting": "[3]; Phenylalanine, tyrosine and tryptophan biosynthesis", "value": 2},
      {"measurement": "Hits", "setting": "[3]; Purine metabolism", "value": 8},
      {"measurement": "Myc protein", "setting": "[4]; Th17", "value": "modestly increased Myc in Th1 but not Th17 cells"},
      {"measurement": "proliferation", "setting": "[4]; Th17", "value": "decreased cytokine production and proliferation only from Th17 cells"},
      {"measurement": "H3K27 tri-methylation, initially", "setting": "[4]; Th17, Day 3", "value": "increased H3K27 tri-methylation"},
      {"measurement": "proliferation", "setting": "[4]; Th17, after three days in culture", "value": "impaired proliferation"},
      {"measurement": "ROS (DCFDA)", "setting": "[4]; Th17, day 5", "value": "ROS increased"},
      {"measurement": "expression of KLRG1 and PD1", "setting": "[4]; Th17, day 5", "value": "decreased or unchanged"},
      {"measurement": "global H3K27 trimethylation", "setting": "[4]; Th17, day 5, normalized to total H3", "value": "increased"},
      {"measurement": "phospho-S6", "setting": "[4]; Th17, day 5, with IL2", "value": "decreased phosphor-S6; also recorded: decreased phospho-S6"},
      {"measurement": "ROS (DCFDA)", "setting": "[4]; Th17, day 5, listed as CD839", "value": "increased ROS"},
      {"measurement": "global H3K4 trimethylation", "setting": "[4]; Th17, day five", "value": "increased"},
      {"measurement": "total rRNA levels per cell", "setting": "[4]; Th17, day five", "value": "decreased"},
      {"measurement": "Th17 cytokine production and differentiation", "setting": "[4]; Th17 skewing, 5 days, CB839 vs vehicle", "value": "decreased cytokine production and proliferation only from Th17 cells"},
      {"measurement": "induction of Treg (Foxp3)", "setting": "[4]; under Th17 conditions", "value": "failed to do so"},
      {"measurement": "glutamine uptake and glutamate, pyruvate, and lactate secretion", "setting": "[5]", "value": "reduced upon GLS inhibition"},
      {"measurement": "2-hydroxyglutarate (2-HG)", "setting": "[6]; Th1, CB839-treated vs vehicle", "value": "increased in both Th1 and Th17"},
      {"measurement": "intracellular α-KG", "setting": "[6]; Th1, CB839-treated vs vehicle", "value": "reduced"},
      {"measurement": "programs of intracellular metabolites", "setting": "[6]; Th1, differentiated with CB839, 5 days", "value": "shifted"},
      {"measurement": "glutamate and aspartate levels", "setting": "[6]; Th1, over five days", "value": "rapidly decreased"},
      {"measurement": "steady state levels of glutamine", "setting": "[6]; Th1, over five days", "value": "rapidly increased"},
      {"measurement": "Hits", "setting": "[6]; [8]", "value": 8},
      {"measurement": "Hits", "setting": "[6]; Arginine and proline metabolism", "value": 6},
      {"measurement": "Hits", "setting": "[6]; Butanoate metabolism", "value": 3},
      {"measurement": "Hits", "setting": "[6]; Citrate cycle (TCA cycle)", "value": 5},
      {"measurement": "Hits", "setting": "[6]; Cysteine and methionine metabolism", "value": 3},
      {"measurement": "Hits", "setting": "[6]; D-Glutamine and Dglutamate metabolism", "value": 3},
      {"measurement": "Hits", "setting": "[6]; Histidine metabolism", "value": 3},
      {"measurement": "Hits", "setting": "[6]; Nitrogen metabolism", "value": 2},
      {"measurement": "Hits", "setting": "[6]; Pyrimidine metabolism", "value": 6},
      {"measurement": "Hits", "setting": "[6]; Pyruvate metabolism", "value": 3}
    ]}
  ]
}
